Test results published in ChEMBL document CHEMBL1155461, “Emerging targets in osteoporosis disease modification” (J Med Chem, 2010).

Columns and labels:
[1] = Induction of osteogenesis in mouse calvarial cells assessed as increase in total bone area at 10 nM; type: functional, Calvarial cell
Cynomolgus monkey [2] = assay: Antiosteoporotic activity in cynomolgus monkey assessed as increase in lumbar vertebrae bone strength at 1000 mg/kg administered daily for 1 year; type: functional, Macaca fascicularis, Lumbar vertebra
Cynomolgus monkey [3] = assay: Antiosteoporotic activity in cynomolgus monkey assessed as decrease in bone resorption-associated urinary CTX-1 level at 10 mg/kg, po administered 5X a day; type: functional; details: Macaca fascicularis, Urine
Cynomolgus monkey [4] = assay: Antiosteoporotic activity in cynomolgus monkey assessed as increase in lumbar vertebrae bone strength at 30 mg/kg administered daily for 1 year; type: functional, Macaca fascicularis, Lumbar vertebra
Cynomolgus monkey [5] = assay: Antiosteoporotic activity in cynomolgus monkey assessed as decrease in bone resorption-associated serum CTX-1 level at 10 mg/kg, po administered 5X a day; type: functional; details: Macaca fascicularis
Cynomolgus monkey [6] = assay: Antiosteoporotic activity in cynomolgus monkey assessed as decrease in bone resorption-associated urinary CTX-1 level at 10 mg/kg, po administered as single dose; type: functional; details: Macaca fascicularis, Urine
Cynomolgus monkey [7] = assay: Antiosteoporotic activity in cynomolgus monkey assessed as decrease in bone resorption-associated serum CTX-1 level at 10 mg/kg, po administered as single dose; type: functional; details: Macaca fascicularis
Homo sapiens [8] = assay: Induction of bone formation in postmenopausal woman assessed as increase in osteocalcin level at […] after 28 days relative to placebo control; type: functional
Rattus norvegicus [9] = assay: Elevated PTH levels in ovariectomised rats as Cmax after 60 mg/kg oral dose; type: functional, organism-based; set-up: dose 60 mg/kg
Homo sapiens [10] = assay: Induction of bone formation in postmenopausal woman assessed as increase in PINP level at […] after 28 days relative to placebo control; type: functional
Rattus norvegicus [11] = assay: Elevated PTH levels in ovariectomised rats as Cmax after 120 mg/kg oral dose; type: functional, organism-based; set-up: dose 120 mg/kg
Homo sapiens [12] = assay: Induction of bone formation in postmenopausal woman assessed as increase in ALP level at […] after 28 days relative to placebo control; type: functional
Rattus norvegicus [13] = assay: Elevated PTH levels in ovariectomised rats as Cmax after 30 mg/kg oral dose; type: functional, organism-based; set-up: dose 30 mg/kg
[14] = Selectivity for cathepsin K over cathepsin S
[15] = Selectivity for cathepsin K over cathepsin B
[16] = Selectivity for cathepsin K over cathepsin L
Osteoclast = assay: Inhibition of bone resorption in human osteoclast assessed as decrease in CTX-1 level at 100 uM; type: functional
[17] = target: Parathyroid hormone/parathyroid hormone-related peptide receptor (Homo sapiens, UniProt Q03431)
Homo sapiens [18] = assay: Antiosteoporotic activity in men with osteoporosis assessed as decrease in bone resorption-associated serum CTX-1 level at 250 mg/kg after 10 to 14 days; type: functional, organism-based; set-up: dose 250 mg/kg
Homo sapiens [19] = assay: Antiosteoporotic activity in postmenopausal woman with osteoporosis assessed as increase in femoral neck bone mineral density at 200 mg/kg BID for 12 months; type: functional
Rattus norvegicus [20] = assay: Antiosteoporotic activity in rat assessed as increase in distal femoral metaphysis bone mineral density at 30 mg/kg BID for 28 days relative to control; type: functional
[21] = Selectivity for integrin alphaVbeta3 over integrin alphaVbeta5
Homo sapiens [22] = assay: Antiosteoporotic activity in postmenopausal woman with osteoporosis assessed as increase in hip bone mineral density at 200 mg/kg BID for 12 months; type: functional, Bone of hip region
Rhesus monkey = assay: Antiosteoporotic activity in rhesus monkey assessed as decrease in bone resorption-associated urinary NTX-1 level at 15 mg/kg QD for 14 days; type: functional, Macaca mulatta, Urine; set-up: scale not given: the % may be the effect or the level left
Homo sapiens [23] = organism: Homo sapiens; assay: Plasma protein binding in human; details: read-out: PPB (converted)
[24] = Clearance in po dosed dog; type: ADME, organism-based, Canis lupus familiaris; details: in vivo
Homo sapiens [25] = assay: Antiosteoporotic activity in postmenopausal woman with osteoporosis assessed as increase in lumbar spine bone mineral density at 200 mg/kg BID for 12 months; type: functional
[26] = Half life in po dosed rat; type: ADME, organism-based; details: in vivo
[27] = Clearance in po dosed rat; type: ADME, organism-based; details: in vivo
Rattus norvegicus [28] = assay: Antiosteoporotic activity in rat assessed as increase in distal femoral metaphysis bone mineral density at 10 mg/kg BID for 28 days relative to control; type: functional
[29] = target: Prostaglandin E2 receptor EP3 subtype (Mus musculus, UniProt P30557); assay: Binding affinity to mouse EP3 receptor by competitive binding assay
Mus musculus = assay: Induction of bone formation in mouse assessed as increase in bone mineral content at 300 ug/kg administered into dorsal muscle pouch relative to control; type: functional, Muscle tissue
Rattus norvegicus [30] = assay: Induction of bone formation in ovariectomized rat assessed as trabecular bone mineral content at 3 ug/kg, sc BID for 11 weeks (RVb = 200 mg/cm3); type: functional, Trabecula
[31] = target: Prostaglandin E2 receptor EP4 subtype (Mus musculus, UniProt P32240); assay: Agonist activity at mouse EP4 receptor expressed in CHO cells assessed as cAMP production; type: functional, cell-based
Prostaglandin E2 receptor EP4 subtype, sequence (P32240 whole entry): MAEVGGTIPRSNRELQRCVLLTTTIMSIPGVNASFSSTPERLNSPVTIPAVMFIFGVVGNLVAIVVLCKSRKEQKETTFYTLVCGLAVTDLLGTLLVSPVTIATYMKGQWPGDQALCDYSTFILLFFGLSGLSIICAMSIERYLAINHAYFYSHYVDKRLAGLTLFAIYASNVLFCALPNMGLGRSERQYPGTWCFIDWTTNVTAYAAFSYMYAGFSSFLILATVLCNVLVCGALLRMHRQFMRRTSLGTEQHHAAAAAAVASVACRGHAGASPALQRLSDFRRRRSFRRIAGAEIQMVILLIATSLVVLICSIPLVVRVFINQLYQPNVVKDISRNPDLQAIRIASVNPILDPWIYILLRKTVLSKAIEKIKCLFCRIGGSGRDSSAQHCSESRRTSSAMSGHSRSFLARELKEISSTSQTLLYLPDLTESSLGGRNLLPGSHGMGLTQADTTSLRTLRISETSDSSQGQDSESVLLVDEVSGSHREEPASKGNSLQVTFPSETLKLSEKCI

Prostaglandin E2 receptor EP3 subtype, sequence (P30557 whole entry): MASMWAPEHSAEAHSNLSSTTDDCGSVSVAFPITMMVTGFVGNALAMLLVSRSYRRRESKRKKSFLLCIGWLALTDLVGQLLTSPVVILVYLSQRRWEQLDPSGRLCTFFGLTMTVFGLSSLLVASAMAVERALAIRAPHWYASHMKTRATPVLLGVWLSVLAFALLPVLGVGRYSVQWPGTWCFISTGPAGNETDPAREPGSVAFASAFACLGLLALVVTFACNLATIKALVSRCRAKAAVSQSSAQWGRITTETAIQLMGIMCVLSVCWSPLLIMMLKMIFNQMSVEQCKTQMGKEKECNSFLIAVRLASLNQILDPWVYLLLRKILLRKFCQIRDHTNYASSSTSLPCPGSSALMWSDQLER
Parathyroid hormone/parathyroid hormone-related peptide receptor, sequence (Q03431 whole entry): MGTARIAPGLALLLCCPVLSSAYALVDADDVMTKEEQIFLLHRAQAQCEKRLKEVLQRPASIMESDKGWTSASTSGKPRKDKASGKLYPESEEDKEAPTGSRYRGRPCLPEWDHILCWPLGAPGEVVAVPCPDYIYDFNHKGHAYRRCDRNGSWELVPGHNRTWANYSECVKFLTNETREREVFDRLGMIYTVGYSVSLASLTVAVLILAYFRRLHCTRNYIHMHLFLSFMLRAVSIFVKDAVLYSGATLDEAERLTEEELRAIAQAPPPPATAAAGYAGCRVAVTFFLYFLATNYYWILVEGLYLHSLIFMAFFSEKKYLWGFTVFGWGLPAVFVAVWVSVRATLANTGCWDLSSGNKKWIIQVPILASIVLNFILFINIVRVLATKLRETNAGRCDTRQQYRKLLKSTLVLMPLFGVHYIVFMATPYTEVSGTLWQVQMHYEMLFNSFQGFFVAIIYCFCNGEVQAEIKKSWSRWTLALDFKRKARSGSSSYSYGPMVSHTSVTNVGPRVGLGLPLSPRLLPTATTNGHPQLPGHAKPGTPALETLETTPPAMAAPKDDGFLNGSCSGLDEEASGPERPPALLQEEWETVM

## O=S(=O)(NC1CCNCC1)c1cc(S(=O)(=O)c2ccccc2)ccc1C(F)(F)F
[1]
  Activity: 60%

## CC(C)C[C@H](NC(=O)c1cc2ccccc2o1)C(=O)N[C@H]1CC[C@@H](C)N(S(=O)(=O)c2ccccn2)CC1=O [RELACATIB]
Cynomolgus monkey [2]
  Activity: 49%
Cynomolgus monkey [3]
  inhibition in vivo at 10 mg/kg: ≤ 57%
Cynomolgus monkey [4]
  Activity: 42%
Cynomolgus monkey [5]
  inhibition in vivo at 10 mg/kg: ≤ 57%
Cynomolgus monkey [6]
  inhibition in vivo at 10 mg/kg: ≤ 57%
Cynomolgus monkey [7]
  inhibition in vivo at 10 mg/kg: ≤ 57%

## CC(C)(CC1Cc2ccccc2C1)NC[C@@H](O)COc1cc(CCC(=O)O)cc(F)c1F.Cl [RONACALERET HYDROCHLORIDE]
Homo sapiens [8]
  Activity: 63%
Rattus norvegicus [9]
  Cmax PTH: 66 pM
Homo sapiens [10]
  Activity: 79%
Rattus norvegicus [11]
  Cmax PTH: 68 pM
Homo sapiens [12]
  Activity: 35%
Rattus norvegicus [13]
  Cmax PTH: 33 pM

## CC(C)C[C@H](NC(=O)c1ccc(C(C)(C)C)cc1)C(=O)N1CC[C@@H]2[C@H]1C(=O)CN2C(=O)c1ccccc1
[14]
  Selectivity ratio: > 446
[15]
  Selectivity ratio: > 990
[16]
  Selectivity ratio: > 347
Osteoclast
  inhibition at 100 µM: 75%

## CCCCN1C(=O)C(=C(N)N)C(=O)N(CCCC)C1=O
[17]
  EC50: 3.2 µM
Homo sapiens [18]
  EC50: 1.5 µM

## COc1ccc([C@H](CC(=O)O)N2CCN(CCCc3ccc4c(n3)NCCC4)C2=O)cn1
Homo sapiens [19]
  Activity: 2.4%
Rattus norvegicus [20]
  Activity: 12.8%
[21]
  Selectivity ratio: 125
Homo sapiens [22]
  Activity: 1.7%
Rhesus monkey
  Activity: 39%
Homo sapiens [23]
  fraction unbound: 0.12
[24]
  CL/F: 0.384 L/h/kg
Homo sapiens [25]
  Activity: 3.5%
[26]
  half-life: 3 h
[27]
  CL/F: 2.82 L/h/kg
Rattus norvegicus [28]
  Activity: 8.9%

## COCc1cccc(C[C@H](O)/C=C/[C@H]2[C@H](O)CC(=O)[C@@H]2CCSCCCC(=O)OC)c1 [RIVENPROST]
[29]
  Ki: 0.056 µM
Mus musculus
  fold change (FC): 3
Rattus norvegicus [30]
  Activity: 378 mg/cm3
[31]
  EC50: 0.0016 µM
